What was measured:
SARS-CoV-2 Spike protein [1] = type: biochemical
SARS-CoV-2 Spike protein [2] = test: Differential scanning fluorimetry; type: binding; settings: 1 μM Spike, PBS, Sypro Orange
[3] = test system: SARS-CoV-2 (USA-WA1/2020), Vero E6 cells
[4] = test system: SARS-CoV-2 Spike/ACE2; Spike-expressing U2OS cells fusing with ACE2-producing Calu-3 cells; type: cell-based, human cells; SARS-CoV-2 Spike
[5] = test system: SARS-CoV-2 (USA-WA1/2020), Vero E6 cells; type: cell-based
[6] = test system: SARS-CoV-2 Spike-pseudotyped viruses (HIV-based), H1299 cells; type: cell-based, SARS-CoV-2 Spike (HIV-based pseudovirus); human H1299 cells
[7] = test system: SARS-CoV-2 Spike pseudovirus; settings: cited from earlier work
[8] = test system: human angiotensin-converting enzyme 2 (ACE2 receptor); settings: on enterocytes; cited from earlier work
[9] = micromolar concentrations of defensin

Row | Molecule | aggregation and precipitation of Spike (SARS-CoV-2 Spike protein [1]) | Spike destabilization relative to HNP1 (SARS-CoV-2 Spike protein [2]) | destabilization of Spike protein (SARS-CoV-2 Spike protein [2]; [9]) | melting peak of Spike (SARS-CoV-2 Spike protein [2]; [9]) | inhibition of SARS-CoV-2 infection [3] | IC50 ([3]; USA-WA1/2020), Vero E6 cells, 24 h) | inhibition of syncytia formation [4] | SARS-CoV-2 infectivity [5] | effect of serum on inhibition of pseudovirus infection [6] | inhibition of infection after pre-incubation of pseudovirus [6] | pseudovirus infection efficiency after pre-treatment of cells [6] | SARS-CoV-2 Spike pseudovirus infection [7] | binding to human ACE2 [8]
1 | CC[C@H](C)[C@@H]1NC(=O)CNC(=O)[C@H](CCCCN)NC(=O)CNC(=O)[C@@H]2CSSC[C@H](NC1=O)C(=O)N[C@@H](CCCNC(=N)N)C(=O)N[C@H]1CSSC[C@H](NC(=O)[C@H](CCCNC(=N)N)NC(=O)[C@@H]3CSSC[C@H](NC(=O)[C@H]([C@@H](C)CC)NC1=O)C(=O)NCC(=O)N[C@@H](CCCNC(=N)N)C(=O)NCC(=O)N[C@@H]([C@@H](C)CC)C(=O)N3)C(=O)N[C@@H]([C@@H](C)CC)C(=O)N2 [RC-101] | partial aggregation and precipitation | less prominent than for HNP1 | destabilized | loss of the melting peak at its normal position | inhibited SARS-CoV-2 infection | 29 ± 7.6 µM | strongly inhibited syncytia formation | strongly inhibited | serum had a negative influence on the inhibitory ability | significantly inhibited the infection | did not affect the pseudovirus infection efficiency | – | –
2 | HD5: enteric human α-defensin HD5 (peptide, UniProt Q01523 20-94, looked up, Defensin-5) Defensin alpha 5: ESLQERADEATTQKQSGEDNQDLAISFAGNGLSALRTSGSQARATCYCRTGRCATRESLSGVCEISGRLYRLCCR | – | – | – | – | – | – | – | – | – | – | – | inhibition of SARS-CoV-2 Spike pseudovirus infection | binds to human angiotensin-converting enzyme 2
